{"source": "patent US9457044B2", "about": "“Methods and compositions for wound healing” (CoDa Therapeutics, Inc., priority 2006, dated 2016)", "key": {"TGF-β1 mRNA": {"test_system": "TGF-β1 mRNA", "assay": "Real-Time PCR of TGF-β1 at wound sites", "assay_type": "in vivo, mice", "procedure": "(§1) Male, 8 week old, ICR mice were used in the following experiments. All the mice were kept under specific pathogen-free conditions in an environmentally controlled clean room at University College London and all the experiments were carried out under UK Home Office regulations. Mice were anaesthetized by halothane inhalation. Four full-thickness excisional wounds of 6 mm diameter were made on the shaved back on either side of the dorsal midline with a 6 mm biopsy punch (Kai Industries). To each pair of wounds a single topical application of 50 μl of 1 μM Cx43 as ODN (SEQ. ID No. 2) (Sigma-Genosys) in 30% Pluronic F-127 gel (Sigma-Aldrich), chilled on ice, was made to one wound, and an identical application of 1 μM sense control sODNs was made to the other. […] R. and Becker, D. L. (2003). Targeting connexin 43 expression accelerates the rate of wound repair. Curr Biol 13, 1697-703). Each wound region was digitally photographed at the indicated time intervals, and the areas of the wounds were calculated. All wound areas were expressed as percentages of the initial wound areas. […]\n(§2) Gene specific primers and probe were obtained as TaqMan® Gene Expression Assays (Applied Biosystems) for Cx43, Ccl2, Co1α1, TNFα and TGFβ1. […] Each sample was analyzed in duplicate. […]"}, "TGF-β1": {"test_system": "TGF-β1", "assay": "Immunostaining for TGF-β1 at wound sites", "assay_type": "in vivo, mice", "settings": "2 days", "procedure": "as §1, with “areas. In some series of experiments, wounds and their surrounding area, including the scab and epithelial margins, were harvested with an 8 mm biopsy punch (Kai Industries) at the indicated time intervals after mice were killed with an overdose of chloroform. A minimum of eight mice were used for each time point examined.” for “areas.”"}, "Cx43 mRNA": {"test_system": "Cx43 mRNA", "assay": "Real-Time PCR of Cx43 mRNA at skin wound sites", "assay_type": "in vivo, mice", "procedure": "(§3) Male, 8 week old, ICR mice were used in the following experiments. All the mice were kept under specific pathogen-free conditions in an environmentally controlled clean room at University College London and all the experiments were carried out under UK Home Office regulations. Mice were anaesthetized by halothane inhalation. Four full-thickness excisional wounds of 6 mm diameter were made on the shaved back on either side of the dorsal midline with a 6 mm biopsy punch (Kai Industries). To each pair of wounds a single topical application of 50 μl of 1 μM Cx43 as ODN (SEQ. ID No. 2) (Sigma-Genosys) in 30% Pluronic F-127 gel (Sigma-Aldrich), chilled on ice, was made to one wound, and an identical application of 1 μM sense control sODNs was made to the other. […] R. and Becker, D. L. (2003). Targeting connexin 43 expression accelerates the rate of wound repair. Curr Biol 13, 1697-703). Each wound region was digitally photographed at the indicated time intervals, and the areas of the wounds were calculated. All wound areas were expressed as percentages of the initial wound areas. In some series of experiments, wounds and their surrounding area, including the scab and epithelial margins, were harvested with an 8 mm biopsy punch (Kai Industries) at the indicated time intervals after mice were killed with an overdose of chloroform. A minimum of eight mice were used for each time point examined.\nTotal RNA was extracted from skin wound samples using TRIzol Reagent (Invitrogen), according to the manufacturer's instructions. Ten micrograms of total RNA was reverse-transcribed into cDNA using the SuperScript First-Strand Synthesis System for RT-PCR (Invitrogen).\nGene specific primers and probe were obtained as TaqMan® Gene Expression Assays (Applied Biosystems) for Cx43, Ccl2, Co1α1, TNFα and TGFβ1. The enzyme and buffer system was purchased as TaqMan® Universal PCR Master Mix (Applied Biosystems). Each sample was analyzed in duplicate. Amplification and real-time detection was performed in the DNA Engine Opticon®2 (MJ Research Inc.). […]"}, "Cx43 protein": {"test_system": "Cx43 protein", "assay": "Cx43 protein knockdown in confluent fibroblast cultures", "assay_type": "cell-based", "settings": "within two hours", "procedure": "Swiss 3T3 fibroblasts were grown in Dulbecco's modified Eagle's medium (DMEM; Gibco) supplemented with 10% fetal calf serum (Labtech) and 1% penicillinstreptomycin solution (Sigma, Poole) in a 5% CO2 incubator at 37° C. Unless otherwise stated, the cells were maintained in this medium for most experiments. The cells were passaged by trypsinization and used at passages 6-10 at a confluency of Z 90%. Cells were plated on 13 mm glass coverslips in 24-well dishes (Nunc) with 4−5×10^5 cells per well containing 1 ml of medium. Cells reached confluency after 72 hours and were then used for experimentation.\nIn order to knock down Cx43 expression in the fibroblasts the media was replaced with serum-free DMEM containing either 20 μM asODNs or 20 μM control sODNs. This was incubated for two hours before being replaced with serum containing DMEM. The wounding assay was then carried out as above."}, "TNF-α mRNA": {"test_system": "TNF-α mRNA", "assay": "Real-Time PCR of TNF-α at wound sites", "assay_type": "in vivo, mice", "settings": "day 7; P<0.05 versus control sODN", "procedure": "as §1, §2"}, "BrdU-positive cells": {"test_system": "BrdU-positive cells", "assay": "BrdU labeling of proliferating cells at wound sites", "assay_type": "in vivo, mice", "procedure": "as §3\nIn another experiment, wounded mice were injected intraperitoneally with 1 ml of BrdU (Sigma) in PBS solution (1 mg/ml) 2 hours before harvesting on days 1, 2, and 7. Wound tissues were fixed in 4% formaldehyde buffered with PBS, and embedded in paraffin. Deparaffinized sections (6 μm thick) were treated with a HistoMouse™-Plus Kit (ZYMED Laboratories, Inc) to reduce background signals according to manufacturer's instructions. […]\nA treatment-blinded observer counted MPO-positive neutrophils and F4/80-positive macrophages in the wound bed (defined as the area surrounded by unwounded skin, fascia, regenerated epidermis, and eschar) in 3 random high-power fields of 0.332 mm^2. BrdU-positive cells in the wound margin and the nascent epidermis regions of each immunohistochemically stained section were counted as described previously and expressed per […] of epidermis (Mori, R., Kondo, T., Nishie, T., Ohshima, T. and Asano, M. (2004). Impairment of skin wound healing in beta-1,4-galactosyltransferase-deficient mice with reduced leukocyte recruitment. Am J Pathol 164, 1303-14). Number of fibroblast like cells (phalloidin-positive cells with spindle-shape body) at the wound margin were counted in high-power fields also (each field was 0.332 mm^2). […] Images were made binary at a standard threshold and positive pixels were counted using Image J (NIH Image)."}}, "data": [{"sequence": "GTAATTGCGGCAGGAGGAATTGTTTCTGTC (antisense GTAATTGCGGCAGGAGGAATTGTTTCTGTC; in Pluronic F-127 gel, further chemistry not given here) [Cx43 asODN]", "values": [{"measurement": "expression of TGF-β1 mRNA versus control sODN-treated wounds", "setting": "TGF-β1 mRNA; day 2 after the injury, P<0.05", "result": "significantly increased"}, {"measurement": "expression of TGF-β1 mRNA, control versus treated wounds", "setting": "TGF-β1 mRNA; days 1 and 7", "result": "no difference"}, {"measurement": "TGF-β1 positive elongated fibroblast-like cells at the dermal margins of the wound", "setting": "TGF-β1", "result": "an additional TGF-β1 positive cell type could be seen in large numbers"}, {"measurement": "TGF-β1 staining in the epidermis versus control wound epidermis", "setting": "TGF-β1", "result": "much more strongly"}, {"measurement": "expression of Cx43 mRNA relative to GAPDH", "setting": "Cx43 mRNA; 7 days after the injury", "result": 4.6, "unit": "units"}, {"measurement": "reduction of Cx43 mRNA versus control sODN-treated wounds", "setting": "Cx43 mRNA; one day after injury, P<0.05", "result": 37, "unit": "%"}, {"measurement": "expression of Cx43 mRNA relative to GAPDH", "setting": "Cx43 mRNA; one day after injury, single topical 50 μl of 1 μM in 30% Pluronic F-127 gel", "result": 2.95, "unit": "units"}, {"measurement": "knockdown of Cx43 protein", "setting": "Cx43 protein", "result": 95, "unit": "%"}, {"measurement": "expression level of TNF-α mRNA", "setting": "TNF-α mRNA", "result": "significantly reduced"}, {"measurement": "keratinocyte proliferation in the epidermal wound margin, control versus treated", "setting": "BrdU-positive cells; FIG. 2E", "result": "little difference"}, {"measurement": "BrdU-positive cells in the dermal wound margin", "setting": "BrdU-positive cells; FIG. 2G", "result": "slightly more cells"}, {"measurement": "BrdU-positive cells in the nascent epidermis", "setting": "BrdU-positive cells; after both 2 days and 7 days", "result": "significantly increased numbers"}, {"measurement": "BrdU-positive cells in the granulation tissue", "setting": "BrdU-positive cells; days 1 and 2", "result": "significantly more"}]}]}
